Assay results: ChEMBL document CHEMBL4507320, “Data for DCP probe NVS-MALT1” (2021)
Active and inactive are the calls of the source. The calls are words filed in the database; no cut-off is given here.

How the values were obtained:
[1] = target: T1, Mucosa-associated lymphoid tissue lymphoma translocation protein 1 (Homo sapiens, UniProt Q9UDY8); assay: Jurkat IL-2 (IL2-RGA PMA + anti-CD28); assay type: cell-based
T1 sequence (Q9UDY8 whole entry): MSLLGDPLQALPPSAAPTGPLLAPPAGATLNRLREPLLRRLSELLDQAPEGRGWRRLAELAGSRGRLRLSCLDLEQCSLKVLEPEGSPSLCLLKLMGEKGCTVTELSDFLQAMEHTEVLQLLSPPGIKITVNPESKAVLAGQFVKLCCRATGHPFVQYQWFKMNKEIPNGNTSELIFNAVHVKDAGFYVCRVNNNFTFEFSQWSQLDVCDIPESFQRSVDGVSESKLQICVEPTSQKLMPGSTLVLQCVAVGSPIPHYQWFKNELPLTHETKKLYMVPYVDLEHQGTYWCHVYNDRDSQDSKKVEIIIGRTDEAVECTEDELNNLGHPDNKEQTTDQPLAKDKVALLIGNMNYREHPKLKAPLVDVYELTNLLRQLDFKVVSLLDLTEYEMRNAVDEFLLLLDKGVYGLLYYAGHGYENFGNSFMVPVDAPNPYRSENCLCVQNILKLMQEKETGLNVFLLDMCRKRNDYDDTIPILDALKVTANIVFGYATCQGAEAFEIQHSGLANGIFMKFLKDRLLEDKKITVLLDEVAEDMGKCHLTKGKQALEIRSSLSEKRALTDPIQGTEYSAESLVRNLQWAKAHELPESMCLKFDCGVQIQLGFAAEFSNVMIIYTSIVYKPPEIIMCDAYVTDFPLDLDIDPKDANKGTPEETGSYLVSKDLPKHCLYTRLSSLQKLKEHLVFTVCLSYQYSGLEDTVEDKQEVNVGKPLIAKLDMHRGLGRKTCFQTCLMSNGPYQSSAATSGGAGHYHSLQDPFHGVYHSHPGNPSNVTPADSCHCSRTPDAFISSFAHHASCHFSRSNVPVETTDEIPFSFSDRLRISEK

[2] = target: Activin receptor type-2B (Homo sapiens) (UniProt Q13705); details: Compound concentration 1000.0 nM
[3] = target: Casein kinase II subunit alpha (Homo sapiens) (UniProt P68400); details: Compound concentration 1000.0 nM
[4] = target: Serine/threonine-protein kinase 17A (Homo sapiens) (UniProt Q9UEE5); details: Compound concentration 1000.0 nM
[5] = target: Epidermal growth factor receptor (Homo sapiens) (UniProt P00533); details: Compound concentration 1000.0 nM
[6] = tested on: Receptor-type tyrosine-protein kinase FLT3 (Homo sapiens), P36888 [N841I]; details: Compound concentration 1000.0 nM
[7] = target: Tyrosine-protein kinase Fyn (Homo sapiens) (UniProt P06241); details: Compound concentration 1000.0 nM
[8] = target: G protein-coupled receptor kinase 3 (Homo sapiens) (UniProt P35626); details: Compound concentration 1000.0 nM
[9] = target: Tyrosine-protein kinase HCK (Homo sapiens) (UniProt P08631); details: Compound concentration 1000.0 nM
[10] = target: Tyrosine-protein kinase Lck (Homo sapiens) (UniProt P06239); details: Compound concentration 1000.0 nM
[11] = target: LIM domain kinase 2 (Homo sapiens) (UniProt P53671); details: Compound concentration 1000.0 nM
LIM domain kinase 2 (Homo sapiens), sequence (P53671 whole entry, looked up, the tested form may be a part): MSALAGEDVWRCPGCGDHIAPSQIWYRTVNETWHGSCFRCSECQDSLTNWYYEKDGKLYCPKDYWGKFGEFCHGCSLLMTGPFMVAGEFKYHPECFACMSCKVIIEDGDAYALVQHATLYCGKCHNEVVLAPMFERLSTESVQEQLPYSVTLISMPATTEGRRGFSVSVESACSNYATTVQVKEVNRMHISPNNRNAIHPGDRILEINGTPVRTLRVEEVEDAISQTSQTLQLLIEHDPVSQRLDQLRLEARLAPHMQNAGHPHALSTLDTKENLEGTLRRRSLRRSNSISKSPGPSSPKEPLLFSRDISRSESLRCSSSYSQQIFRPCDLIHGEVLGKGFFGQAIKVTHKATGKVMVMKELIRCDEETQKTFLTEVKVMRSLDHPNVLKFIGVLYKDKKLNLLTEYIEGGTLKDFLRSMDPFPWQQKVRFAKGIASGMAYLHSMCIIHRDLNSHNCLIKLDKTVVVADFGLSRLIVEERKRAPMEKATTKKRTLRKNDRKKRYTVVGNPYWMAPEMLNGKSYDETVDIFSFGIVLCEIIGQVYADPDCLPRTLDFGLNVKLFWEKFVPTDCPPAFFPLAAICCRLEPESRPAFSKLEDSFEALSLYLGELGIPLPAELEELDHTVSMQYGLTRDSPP

[12] = target: MAP kinase-interacting serine/threonine-protein kinase 2 (Homo sapiens) (UniProt Q9HBH9); details: Compound concentration 1000.0 nM
[13] = target: Macrophage-stimulating protein receptor (Homo sapiens) (UniProt Q04912); details: Compound concentration 1000.0 nM
[14] = target: Serine/threonine-protein kinase 3 (Homo sapiens) (UniProt Q13188); details: Compound concentration 1000.0 nM
[15] = target: Myosin-IIIa (Homo sapiens) (UniProt Q8NEV4); details: Compound concentration 1000.0 nM
[16] = target: Myosin-IIIb (Homo sapiens) (UniProt Q8WXR4); details: Compound concentration 1000.0 nM
[17] = target: Serine/threonine-protein kinase PAK 6 (Homo sapiens) (UniProt Q9NQU5); details: Compound concentration 1000.0 nM
Serine/threonine-protein kinase PAK 6 (Homo sapiens), sequence (Q9NQU5 whole entry, looked up): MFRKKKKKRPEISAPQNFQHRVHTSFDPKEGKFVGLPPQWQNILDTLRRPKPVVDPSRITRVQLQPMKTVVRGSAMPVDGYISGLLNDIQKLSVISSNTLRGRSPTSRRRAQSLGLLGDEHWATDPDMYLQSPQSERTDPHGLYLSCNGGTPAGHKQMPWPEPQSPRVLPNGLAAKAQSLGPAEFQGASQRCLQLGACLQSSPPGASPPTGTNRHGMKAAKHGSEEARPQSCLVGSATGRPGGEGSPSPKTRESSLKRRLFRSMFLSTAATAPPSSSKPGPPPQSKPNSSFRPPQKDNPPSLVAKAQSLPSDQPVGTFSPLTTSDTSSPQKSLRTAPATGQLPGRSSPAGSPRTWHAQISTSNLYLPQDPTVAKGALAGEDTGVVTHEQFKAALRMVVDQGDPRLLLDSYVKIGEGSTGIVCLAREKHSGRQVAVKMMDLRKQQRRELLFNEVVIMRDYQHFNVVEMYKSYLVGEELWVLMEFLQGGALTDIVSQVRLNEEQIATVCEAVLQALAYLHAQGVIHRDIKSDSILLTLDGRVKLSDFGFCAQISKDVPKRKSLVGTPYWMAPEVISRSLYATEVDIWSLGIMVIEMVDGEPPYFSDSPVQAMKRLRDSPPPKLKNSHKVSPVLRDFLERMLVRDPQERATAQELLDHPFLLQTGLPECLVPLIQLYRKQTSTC

[18] = target: Cyclin-dependent kinase 17 (Homo sapiens) (UniProt Q00537); details: Compound concentration 1000.0 nM
[19] = target: Cyclin-dependent kinase 18 (Homo sapiens) (UniProt Q07002); details: Compound concentration 1000.0 nM
[20] = target: Calcium-dependent protein kinase 1 (Plasmodium falciparum) (UniProt P62344); details: Compound concentration 1000.0 nM
[21] = target: Phosphorylase b kinase gamma catalytic chain, skeletal muscle/heart isoform (Homo sapiens) (UniProt Q16816); details: Compound concentration 1000.0 nM
Phosphorylase b kinase gamma catalytic chain, skeletal muscle/heart isoform (Homo sapiens), sequence (Q16816 whole entry, looked up, the tested form may be a part, canonical isoform): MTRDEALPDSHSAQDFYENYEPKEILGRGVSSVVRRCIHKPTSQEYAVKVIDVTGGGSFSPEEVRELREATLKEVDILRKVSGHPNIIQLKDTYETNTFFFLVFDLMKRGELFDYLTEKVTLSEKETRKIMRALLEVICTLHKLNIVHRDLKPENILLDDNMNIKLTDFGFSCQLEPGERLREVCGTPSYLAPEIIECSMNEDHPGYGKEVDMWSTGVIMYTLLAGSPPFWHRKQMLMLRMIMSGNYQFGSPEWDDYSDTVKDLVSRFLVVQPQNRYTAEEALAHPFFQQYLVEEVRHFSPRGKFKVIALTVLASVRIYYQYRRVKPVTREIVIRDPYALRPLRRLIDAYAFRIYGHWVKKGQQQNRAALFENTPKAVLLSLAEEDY

[22] = target: Phosphatidylinositol 4-phosphate 3-kinase C2 domain-containing subunit beta (Homo sapiens) (UniProt O00750); details: Compound concentration 1000.0 nM
Phosphatidylinositol 4-phosphate 3-kinase C2 domain-containing subunit beta (Homo sapiens), sequence (O00750 whole entry, the tested form may be a part, canonical isoform): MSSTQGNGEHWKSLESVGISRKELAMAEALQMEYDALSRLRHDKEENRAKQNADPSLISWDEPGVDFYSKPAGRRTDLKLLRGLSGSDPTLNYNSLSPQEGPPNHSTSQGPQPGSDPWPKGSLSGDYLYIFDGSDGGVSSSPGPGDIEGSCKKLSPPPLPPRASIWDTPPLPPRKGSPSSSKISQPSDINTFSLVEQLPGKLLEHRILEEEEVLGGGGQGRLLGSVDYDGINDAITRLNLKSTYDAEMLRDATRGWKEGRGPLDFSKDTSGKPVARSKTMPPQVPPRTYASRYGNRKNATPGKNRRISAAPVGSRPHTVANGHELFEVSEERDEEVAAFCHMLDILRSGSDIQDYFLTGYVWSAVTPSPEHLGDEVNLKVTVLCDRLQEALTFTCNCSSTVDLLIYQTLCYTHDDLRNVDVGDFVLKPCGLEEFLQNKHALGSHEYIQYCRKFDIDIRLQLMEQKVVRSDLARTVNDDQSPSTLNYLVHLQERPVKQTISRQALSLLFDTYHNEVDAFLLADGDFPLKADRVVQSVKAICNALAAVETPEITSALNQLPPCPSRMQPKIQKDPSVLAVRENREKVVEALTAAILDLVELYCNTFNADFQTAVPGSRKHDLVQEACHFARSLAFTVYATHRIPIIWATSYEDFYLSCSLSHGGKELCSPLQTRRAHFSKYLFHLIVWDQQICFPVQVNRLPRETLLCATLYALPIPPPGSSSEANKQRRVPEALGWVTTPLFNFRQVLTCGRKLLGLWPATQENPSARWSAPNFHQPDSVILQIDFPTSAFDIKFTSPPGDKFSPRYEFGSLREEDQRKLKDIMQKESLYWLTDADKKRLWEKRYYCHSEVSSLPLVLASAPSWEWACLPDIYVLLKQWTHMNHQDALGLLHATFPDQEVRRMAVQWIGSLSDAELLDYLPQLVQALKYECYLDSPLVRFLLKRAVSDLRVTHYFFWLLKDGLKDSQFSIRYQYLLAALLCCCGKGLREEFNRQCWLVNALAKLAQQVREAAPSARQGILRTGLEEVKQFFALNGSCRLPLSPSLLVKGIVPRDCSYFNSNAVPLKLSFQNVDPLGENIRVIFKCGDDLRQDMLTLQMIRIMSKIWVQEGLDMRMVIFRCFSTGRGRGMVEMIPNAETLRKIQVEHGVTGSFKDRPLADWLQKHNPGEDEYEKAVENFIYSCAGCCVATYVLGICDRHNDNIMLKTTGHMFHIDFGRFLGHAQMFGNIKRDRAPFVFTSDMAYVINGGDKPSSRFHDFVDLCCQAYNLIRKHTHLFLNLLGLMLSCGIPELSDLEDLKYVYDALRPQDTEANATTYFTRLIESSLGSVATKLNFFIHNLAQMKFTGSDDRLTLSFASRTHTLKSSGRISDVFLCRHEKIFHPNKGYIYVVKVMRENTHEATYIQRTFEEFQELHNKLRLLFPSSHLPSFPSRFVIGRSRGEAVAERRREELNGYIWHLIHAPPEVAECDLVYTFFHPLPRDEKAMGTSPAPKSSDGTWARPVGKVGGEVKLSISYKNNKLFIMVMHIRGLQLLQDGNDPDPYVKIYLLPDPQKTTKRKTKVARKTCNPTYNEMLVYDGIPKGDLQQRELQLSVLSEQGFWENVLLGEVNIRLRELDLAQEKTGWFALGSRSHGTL

[23] = tested on: Phosphatidylinositol 4,5-bisphosphate 3-kinase catalytic subunit alpha isoform (Homo sapiens), P42336 [E542K]; details: Compound concentration 1000.0 nM
Phosphatidylinositol 4,5-bisphosphate 3-kinase catalytic subunit alpha isoform (Homo sapiens), P42336 [E542K], sequence (P42336 whole entry E542K, canonical isoform): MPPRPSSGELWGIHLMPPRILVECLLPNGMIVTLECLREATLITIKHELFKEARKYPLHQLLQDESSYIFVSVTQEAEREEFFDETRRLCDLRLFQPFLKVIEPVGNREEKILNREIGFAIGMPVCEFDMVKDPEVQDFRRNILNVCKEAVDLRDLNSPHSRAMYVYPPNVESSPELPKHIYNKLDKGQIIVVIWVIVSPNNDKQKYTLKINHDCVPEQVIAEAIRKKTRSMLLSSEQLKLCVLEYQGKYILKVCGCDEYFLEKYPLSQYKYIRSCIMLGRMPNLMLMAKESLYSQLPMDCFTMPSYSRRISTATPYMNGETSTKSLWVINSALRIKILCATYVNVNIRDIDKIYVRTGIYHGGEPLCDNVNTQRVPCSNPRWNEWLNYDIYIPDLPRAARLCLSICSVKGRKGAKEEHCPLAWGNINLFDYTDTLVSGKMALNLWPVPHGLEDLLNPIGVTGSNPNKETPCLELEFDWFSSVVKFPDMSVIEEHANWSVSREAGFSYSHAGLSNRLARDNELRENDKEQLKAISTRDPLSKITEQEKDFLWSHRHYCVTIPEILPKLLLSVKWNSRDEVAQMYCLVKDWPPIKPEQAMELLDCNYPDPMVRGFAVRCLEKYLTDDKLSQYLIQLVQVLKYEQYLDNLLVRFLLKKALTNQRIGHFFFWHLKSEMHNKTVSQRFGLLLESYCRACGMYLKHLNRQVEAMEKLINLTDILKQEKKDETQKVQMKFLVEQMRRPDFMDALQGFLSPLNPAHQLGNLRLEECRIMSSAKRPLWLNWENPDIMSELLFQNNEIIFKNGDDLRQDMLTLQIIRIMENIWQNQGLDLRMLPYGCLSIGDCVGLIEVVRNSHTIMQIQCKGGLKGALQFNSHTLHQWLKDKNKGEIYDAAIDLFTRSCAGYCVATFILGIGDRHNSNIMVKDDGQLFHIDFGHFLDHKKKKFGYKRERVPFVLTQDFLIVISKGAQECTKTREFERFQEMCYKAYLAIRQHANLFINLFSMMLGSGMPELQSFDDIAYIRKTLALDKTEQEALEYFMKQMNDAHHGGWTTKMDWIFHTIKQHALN

[24] = tested on: Phosphatidylinositol 4,5-bisphosphate 3-kinase catalytic subunit alpha isoform (Homo sapiens), P42336 [E545A]; details: Compound concentration 1000.0 nM
Phosphatidylinositol 4,5-bisphosphate 3-kinase catalytic subunit alpha isoform (Homo sapiens), P42336 [E545A], sequence (P42336 whole entry E545A, canonical isoform): as the sequence (P42336 whole entry E542K, canonical isoform) above, with K542E, E545A counted along it

[25] = target: Protein kinase C epsilon type (Homo sapiens) (UniProt Q02156); details: Compound concentration 1000.0 nM
[26] = target: Protein kinase C eta type (Homo sapiens) (UniProt P24723); details: Compound concentration 1000.0 nM
[27] = target: Ribosomal protein S6 kinase alpha-5 (Homo sapiens) (UniProt O75582); details: Compound concentration 1000.0 nM
[28] = target: Serine/threonine-protein kinase Sgk3 (Homo sapiens) (UniProt Q96BR1); details: Compound concentration 1000.0 nM
[29] = target: SRSF protein kinase 3 (Homo sapiens) (UniProt Q9UPE1); details: Compound concentration 1000.0 nM
[30] = target: Angiopoietin-1 receptor (Homo sapiens) (UniProt Q02763); details: Compound concentration 1000.0 nM
[31] = target: Tyrosine-protein kinase Yes (Homo sapiens) (UniProt P07947); details: Compound concentration 1000.0 nM
[32] = target: 5-hydroxytryptamine receptor 2B (Homo sapiens) (UniProt P41595); details: Compound concentration 10.0 uM
[33] = target: Histamine H2 receptor (Homo sapiens) (UniProt P25021); details: Compound concentration 10.0 uM
Histamine H2 receptor (Homo sapiens), sequence (P25021 whole entry): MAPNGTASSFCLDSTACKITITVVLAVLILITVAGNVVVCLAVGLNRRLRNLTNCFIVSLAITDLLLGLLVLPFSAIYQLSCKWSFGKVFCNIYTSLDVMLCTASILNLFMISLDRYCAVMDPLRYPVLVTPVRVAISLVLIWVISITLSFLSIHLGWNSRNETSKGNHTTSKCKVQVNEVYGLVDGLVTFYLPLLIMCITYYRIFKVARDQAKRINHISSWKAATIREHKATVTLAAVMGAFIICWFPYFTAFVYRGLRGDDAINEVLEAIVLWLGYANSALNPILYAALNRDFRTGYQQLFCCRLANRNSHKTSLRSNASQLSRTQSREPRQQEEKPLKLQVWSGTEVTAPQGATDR

[34] = target: Muscarinic acetylcholine receptor M4 (Homo sapiens) (UniProt P08173); details: Compound concentration 10.0 uM

| Compound | IC50 [1] | residual activity [2] [%] | residual activity [3] [%] | residual activity [4] [%] | residual activity [5] [%] | residual activity [6] [%] | residual activity [7] [%] | residual activity [8] [%] | residual activity [9] [%] | residual activity [10] [%] | residual activity [11] [%] | residual activity [12] [%] | residual activity [13] [%] | residual activity [14] [%] | residual activity [15] [%] | residual activity [16] [%] | residual activity [17] [%] | residual activity [18] [%] | residual activity [19] [%] | residual activity [20] [%] | other results |
| --- | --- | --- | --- | --- | --- | --- | --- | --- | --- | --- | --- | --- | --- | --- | --- | --- | --- | --- | --- | --- | --- |
| CO[C@@H](C)c1c(Nc2ccc([C@@H](N(C)C(=O)C3CCS(=O)(=O)CC3)C(F)(F)F)cc2)cnc2cc(Cl)nn12 [NVS-MALT1-C] | 1900 nM (active) | 100 | 100 | 90 | 95 | 57 | 95 | 91 | 100 | 84 | 87 | 85 | 100 | 100 | 100 | 100 | 100 | 100 | 99 | 78 | residual activity [21]: 96%; residual activity [22]: 89%; residual activity [23]: 78%; residual activity [24]: 77%; residual activity [25]: 94%; residual activity [26]: 78%; residual activity [27]: 82%; residual activity [28]: 100%; residual activity [29]: 100%; residual activity [30]: 90%; residual activity [31]: 100%; inhibition [32]: 9.74%; inhibition [33]: 5.46%; inhibition [34]: 21.1% |
| CO[C@@H](C)c1c(Nc2ccc([C@H](N(C)C(=O)C3CCS(=O)(=O)CC3)C(F)(F)F)cc2)cnc2cc(Cl)nn12 [NVS-MALT1] | 3.4 nM (active) | 66 | 100 | 87 | 93 | 23 | 100 | 100 | 100 | 83 | 91 | 100 | 100 | 92 | 100 | 82 | 100 | 75 | 93 | 97 | residual activity [21]: 93%; residual activity [22]: 97%; residual activity [23]: 71%; residual activity [24]: 65%; residual activity [25]: 100%; residual activity [26]: 86%; residual activity [27]: 86%; residual activity [28]: 100%; residual activity [29]: 100%; residual activity [30]: 84%; residual activity [31]: 99%; inhibition [32]: -3.94%; inhibition [33]: -9.88%; inhibition [34]: 21.3% |
